Reference: patent US12617762B2, “Carboxy derivatives with antiinflamatory properties” (Sitryx Therapeutics Limited, priority 2019, dated 2026)
pEC50, pIC50: −log10 of the molar value. Read-outs that look alike come from different tables or passages of the source.

Legend:
[1] = test system: IL-1β cytokine output from THP-1s; experiment: THP-1 AlphaLISA IL-1β cytokine inhibition assay; format: cell-based; settings: for pIC50: Homo sapiens; for IL-1β lowering, result in words: THP-1 IL-1β assay
How it was run: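 IL-1β release by AlphaLISA, expressed as % inhibition against +/− LPS controls on each plate. Differentiation: PMA, 72 h. Sequence: 30 min compound pre-treatment, LPS 24 h, Nigericin 1 h before supernatant harvest, all at 37° C./5% CO2.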

[2] = Hepatocyte stability assay, mouse; format: in vitro ADME; settings: mouse, hepatocytes; for hepatocyte CLint at 10 μM: Hepatocyte stability Clint; for half-life at 10 μM: Hepatocyte stability T½
From the text: (§1) Defrosted cryo-preserved hepatocytes (viability >70%) were used to determine the metabolic stability of a compound via calculation of intrinsic clearance (CIint; a measure of the removal of a compound from the liver in the absence of blood flow and cell binding). Clearance data are particularly important for in vitro work as they can be used in combination with in vivo data to predict the half-life and oral bioavailability of a drug.
(§2) The metabolic stability in hepatocytes assay involves a time-dependent reaction using both positive and negative controls. The cells were pre-incubated at 37° C. then spiked with test compound (and positive control); samples were taken at pre-determined time intervals and were analysed to monitor the change in concentration of the initial drug compound over 60 minutes. A buffer incubation reaction (with no hepatocytes present) acted as a negative control and two cocktail solutions, containing compounds with known high and low clearance values (verapamil/7-hydroxycoumarin and propranolol/diltiazem), acted as positive controls. • 1. The assay was run with a cell concentration of 0.5×10^6 cells/mL in Leibovitz buffer. • 2. All compounds and controls were run in duplicate. • 3. Compound concentration was 10 μM. • 4. All compounds and controls were incubated with both cells and buffer to show turnover was due to hepatic metabolism. • 5. All wells on the incubation plate had 326.7 μL of either cells or buffer added. • 6. Prior to assay, cell and buffer-only incubation plates were preincubated for 10 mins at 37° C. • 7. The assay was initiated by adding compounds, 3.3 μL of 1 mM in 10% DMSO—90% Buffer; final DMSO concentration was 0.1%. • 8. Samples were taken at regular timepoints (0, 5, 10, 20, 40, 60 min) until 60 mins. • 9. Sample volume was 40 μL and was added to 160 μL of crash solvent (acetonitrile with internal standard) and stored on ice. • 10. At the end of the assay, the crash plates were centrifuged at 3500 rpm for 20 mins at 4° C. • 11. 80 μL of clear supernatant was removed and mixed with 80 μL of deionised water before being analysed by LC-MS/MS.
(§3) Raw LC-MS/MS data was exported to, and analysed in, Microsoft Excel for determination of intrinsic clearance. The percentage remaining of a compound was monitored using the peak area of the initial concentration as 100%. Intrinsic clearance and half-life values were calculated using a graph of the natural log of percentage remaining versus the time of reaction in minutes.

[3] = test system: NRF2 (nuclear factor erythroid 2-related factor 2); experiment: NRF2 +/-GSH activation assay (DiscoverX PathHunter NRF2 translocation kit, U2OS cells); format: cell-based
Description: Measuring Compound Activation Effects on the Anti-Inflammatory Transcription Factor NRF2 in DiscoverX PathHunter NRF2 Translocation Kit
Potency and efficacy of compounds of formula (I) against the target of interest to activate NRF2 (nuclear factor erythroid 2-related factor 2) were determined using the PathHunter NRF2 translocation kit (DiscoverX). The NRF2 translocation assay was run using an engineered recombinant cell line, utilising enzyme fragment complementation to determine activation of the Keap1-NRF2 protein complex and subsequent translocation of NRF2 into the nucleus. Enzyme activity was quantified using a chemiluminescent substrate consumed following the formation of a functional enzyme upon PK-tagged NRF2 translocation into the nucleus.
The assay was run under both +/−GSH (glutathione) conditions to determine the sensitivity of the compounds' NRF2-activating abilities to attenuation by GSH.
Additionally, a defined concentration of DMF was used as the ‘High’ control to normalise test compound activation responses to.
U2OS PathHunter eXpress cells were thawed from frozen prior to plating. Following plating, U2OS cells were incubated for 24 hrs (37° C./5% CO2) in commercial kit provided cell medium.
Following 24 hrs of U2OS incubation, cells were directly treated with an appropriate final concentration of compound, for −GSH conditions or, for +GSH conditions, an intermediate plate containing 6× working concentrations of compound stocks was prepared in a 6 mM working concentration of GSH solution (solubilised in sterile PBS). Following a 30 minute compound-GSH pre-incubation (37° C./5% CO2) for +GSH treatment, plated U2OS cells were incubated with an appropriate final concentration of compound and GSH.
Following compound (+/−GSH) treatment, the U2OS plates were incubated for a further 6 hours (37° C./5% CO2) before detection reagent from the PathHunter NRF2 commercial kit was prepared and added to test plates according to the manufacturer's instructions. Subsequently, the luminescence signal detection was measured in a microplate reader (PHERAstar®, BMG Labtech).
Percentage activation was calculated by normalising the sample data to the high and low controls used within each plate (+/−DMF).

[4] = Hepatocyte stability assay, human; format: in vitro ADME; settings: human, hepatocytes; for hepatocyte CLint at 10 μM: Hepatocyte stability Clint; for half-life at 10 μM: Hepatocyte stability T½
From the text: as §1, §2, §3

[5] = THP-1, differentiated THP-1 cells, LPS then nigericin
[6] = +GSH, 30 minute compound-GSH pre-incubation, read-out: NRF2 activation +GSH EC50
[7] = +GSH, normalised to DMF high control
[8] = −GSH, U2OS PathHunter cells, 6 hours compound treatment, read-out: NRF2 activation −GSH EC50
[9] = −GSH, normalised to DMF high control

| SMILES | pIC50 [1, 5] | IL-1β lowering, result in words [1] | hepatocyte CLint at 10 μM [2] [µL/min/1e6 cells] | half-life at 10 μM [2] [min] | pEC50 [3, 6] | NRF2 activation +GSH Emax [3, 7] [%] | pEC50 [3, 8] | NRF2 activation −GSH Emax [3, 9] [%] | hepatocyte CLint at 10 μM [4] [µL/min/1e6 cells] | half-life at 10 μM [4] [min] | pIC50 ([1]; THP-1, Table 3, head to head comparison of exo vs endo double bond compounds) | pEC50 ([3]; −GSH, Table 5 exo vs endo comparison, read-out: −GSH EC50) | −GSH Emax ([3]; −GSH, normalised to DMF high control, Table 5 exo vs endo comparison) [%] |
| --- | --- | --- | --- | --- | --- | --- | --- | --- | --- | --- | --- | --- | --- |
| C=C(Cc1nc(C(C)(C)CCCCC)no1)C(=O)O [Example 12, 2-((3-(2-methylheptan-2-yl)-1,2,4-oxadiazol-5-yl)methyl)acrylic acid] | < 4.00 | not effective | 15 | 90 | 4.21 | 73 | 4.27 | 85 | 16 | 90 | – | – | – |
| C=C(Cc1nc(Cc2ccc(C(C)(C)C)cc2)no1)C(=O)O [Example 15, 2-((3-(4-(tert-butyl)benzyl)-1,2,4-oxadiazol-5-yl)methyl)acrylic acid] | 4.62 | – | 31 | 35 | < 4.00 | 33 | 4.24 | 41 | 7.5 | 167 | – | – | – |
| C=C(Cc1nc(-c2ccc(Cl)cc2)no1)C(=O)O [Example 7, 2-((3-(4-chlorophenyl)-1,2,4-oxadiazol-5-yl)methyl)acrylic acid] | < 4.00 | not effective | 28 | 49 | 4.35 | 89 | 4.40 | 113 | < 6 | > 320 | – | – | – |
| C=C(Cc1nc(Cc2ccc(Cl)cc2)no1)C(=O)O [Example 4, 2-((3-(4-chlorobenzyl)-1,2,4-oxadiazol-5-yl)methyl)acrylic acid] | 4.31 | – | 13 | 93 | < 4.00 | 23 | 4.39 | 47 | < 3 | > 460 | – | – | – |
| C=C(Cc1nc(C2(c3ccc(Cl)cc3)CCC2)no1)C(=O)O [Example 25, 2-((3-(1-(4-chlorophenyl)cyclobutyl)-1,2,4-oxadiazol-5-yl)methyl)acrylic acid] | 4.19 | – | 17 | 90 | < 4.00 | 31 | < 4.00 | 32 | 12 | 104 | – | – | – |
| C=C(Cc1nc(Cc2ccc(Cl)c(Cl)c2)no1)C(=O)O [Example 14, 2-((3-(3,4-dichlorobenzyl)-1,2,4-oxadiazol-5-yl)methyl)acrylic acid] | < 4.00 | not effective | 18 | 72 | 4.28 | 46 | 4.66 | 78 | 6 | 240 | – | – | – |
| C=C(Cc1nc(CCc2ccc(CCC)cc2)no1)C(=O)O [Example 36, 2-((3-(4-propylphenethyl)-1,2,4-oxadiazol-5-yl)methyl)acrylic acid] | 4.43 | – | 249 | 7 | 4.85 | 181 | 5.00 | 216 | 23 | 61 | – | – | – |
| C=C(Cc1nc(C(F)(F)c2ccc(OC(F)(F)F)cc2)no1)C(=O)O [Example 94, 2-((3-(difluoro(4-(trifluoromethoxy)phenyl)methyl)-1,2,4-oxadiazol-5-yl)methyl)acrylic acid] | 4.69 | – | 29 | 66 | 4.86 | 183 | 5.10 | 208 | < 3 | > 460 | – | – | – |
| C=C(Cc1nnc(CCCCCCCC)o1)C(=O)O [Example 2, 2-((5-octyl-1,3,4-oxadiazol-2-yl)methyl)acrylic acid] | 4.43 | – | 74 | 19 | 4.57 | 169 | 4.72 | 176 | 95 | 15 | – | – | – |
| C=C(Cc1nc(Cc2ccc3ccccc3c2)no1)C(=O)O [Example 9, 2-((3-(naphthalen-2-ylmethyl)-1,2,4-oxadiazol-5-yl)methyl)acrylic acid] | 4.26 | – | 41 | 25 | 4.16 | 44 | 4.37 | 51 | 7 | 181 | – | – | – |
| C=C(Cc1nc(C2(c3cc(Cl)c(F)c(Cl)c3)CC2)no1)C(=O)O [Example 133, 2-((3-(1-(3,5-dichloro-4-fluorophenyl)cyclopropyl)-1,2,4-oxadiazol-5-yl)methyl)acrylic acid] | 5.80 | – | 338 | 4 | 5.38 | 281 | 5.46 | 234 | 73 | 19 | – | – | – |
| C=C(Cc1nc(CCCCCCCC)co1)C(=O)O [Example 39, 2-((4-octyloxazol-2-yl)methyl)acrylic acid] | 5.07 | – | > 460 | < 3 | 5.12 | 172 | 5.29 | 234 | 386 | 3 | – | – | – |
| CCCCOc1ccc(-c2noc(/C=C(\C)C(=O)O)n2)cc1 [Example 167] | < 4.00 | – | 331 | 6 | < 4.00 | 15 | < 4.00 | 100 | 35 | 35 | < 4.00 | < 4.00 | 100 |
| C=C(Cc1nc(-c2ccc(OCCCC(F)(F)F)cc2)no1)C(=O)O [Example 146, 2-((3-(4-(4,4,4-trifluorobutoxy)phenyl)-1,2,4-oxadiazol-5-yl)methyl)acrylic acid] | < 4.50 | – | 194 | 8 | 4.84 | 125 | 4.88 | 177 | 36 | 41 | – | – | – |
